The values that follow come from PMC5059921, “Chalepin: isolated from Ruta angustifolia L. Pers induces mitochondrial mediated apoptosis in lung carcinoma cells” (BMC Complementary and Alternative Medicine, 2016).

Where two headings read alike, the source gives them in different places. A value given as a limit tells only on which side of the number the result lay.

The subject of assay [1] is washed rabbit platelets. Also noted: method as in earlier work; key to effect on platelet aggregation (class symbol): A: P latelet aggregation was promoted. The settings on record: cited from earlier work; for % inhibition of platelet aggregation, inducer AA: AA 100 /c109/c77; for % inhibition of platelet aggregation, inducer PAF: PAF 2ng/mL; for % inhibition of platelet aggregation, inducer Col: collagen 10 /c109g/mL; for % inhibition of platelet aggregation, inducer Thr: thrombin 0.1 U/mL; for antiplatelet aggregation activity (in words): at 100 /c109g/mL.

Assay [2] relates to DLD (DLD-1): Human colon adenocarcinoma. Set-up: method as in earlier work. The settings on record: cited from earlier work.
Assay [3] relates to Hepa: Human hepatoma. Also noted: method as in earlier work. The settings on record: cited from earlier work.
The subject of assay [4] is A549 cell line. The experiment in a line: SRB in vitro cytotoxicity screening. It counts as cell-based, human. The settings on record: isolated compounds. How it is done: (§1) The human cell lines A549 (lung cancer) and Ca Ski (cervical cancer) were cultured as monolayer in RPMI 1640 growth media whereas HCT-116 (colon cancer) and MRC5 (human normal lung fibroblasts) was cultured in McCoy’s 5A and EMEM medium, respectively. All cells were purchased from the […] (ATCC, USA). All the media were supplemented with 10 % v/v foetal bovine serum (FBS), 100 μg/mL penicillin/streptomycin, and 50 μg/mL amphotericin B. The cells were cultured in a 5 % CO2 incubator at 37 °C.
(§2) The monolayer cell culture was detached using accutase and the cell count was adjusted to 2.5 x10^5 -3.0 x10^5 cells/mL using medium containing feotal bovine serum. The cells were then plated into 96 wells with a cell density of 5000-7000 cells/well and then incubated for 24 h to allow adherence of cells to the base of well of the plates. The media was then removed and 200 μl of fresh media containing different concentration of various extracts or isolated compounds were added. Cisplatin was used as the positive control. The plates were incubated for 24, 48 and 72 h at 37 °C and 5 % CO2. The cytotoxicity of the extracts and isolated compounds were screened using the […] (SRB) assay. This assay was first described by Houghton in 2007 [8]. The incubation was halted by gentle addition of 50 μl ice cold 4 % trichloroacetic acid (TCA) to each well and the plates were incubated at 4 °C for 1 h. Then, the supernatant was discarded and the plates were washed with distilled water for 5 times and then air dried. SRB dye, 50 μl, (0.4 % w/v) was added into each well and the treated cells and control were incubated at room temperature for 30 min. The unbound dye was removed by rapid washing four times with 1 % acetic acid. The plates were then air dried and 100 μl of tris base (10 mM unbuffered, pH 10.5) was added and the plates were shaken at 500 rpm for 5 min to solublize the bound SRB stain. The plates were then read with an ELISA reader (Synergy H1 Hybrid) at an absorbance of 492 nm.

For assay [5], the system named is MRC5 (human normal lung fibroblasts). The experiment in a line: SRB in vitro cytotoxicity screening (toxicity to normal cells). It counts as cell-based. The settings on record: isolated compounds; for IC50: 72 h, read-out: IC50 in μg/ml (μM) (MRC5) 72 h (converted). How it is done:
as §1, §2

Assay [6] relates to Hela: Human cervix epithelioid carcinoma. Also noted: method as in earlier work. The settings on record: cited from earlier work.
The mark [7] stands for this setting: Homo sapiens, MRC5, value in brackets.
Where [8] appears, read: Homo sapiens, A549, 48 h, value in brackets, read-out: IC50 in μg/ml (μM) (A549) 48 h (converted).
Setting [9] is: Homo sapiens, A549, 48 h, read-out: IC50 in μg/ml (μM) (A549) 48 h (converted).
Where [10] appears, read: Homo sapiens, A549, 72 h, value in brackets, read-out: IC50 in μg/ml (μM) (A549) 72 h (converted).
Where [11] appears, read: Homo sapiens, A549, 72 h, read-out: IC50 in μg/ml (μM) (A549) 72 h (converted).

Consider `COc1cc2nc3occc3c(OC)c2cc1OC` [Compound 6, kokusaginine], for which, in assay [1] (Conc. 100 /c109g/mL), the “% inhibition of platelet aggregation, inducer AA” value (“% inhibition … inducer AA” below) was 42.2%; the “% inhibition of platelet aggregation, inducer PAF” value (shortened to “% inhibition … inducer PAF”) is 3.5%; the “% inhibition of platelet aggregation, inducer Col” value (from here on “% inhibition … inducer Col”) was 53.1%; the “% inhibition of platelet aggregation, inducer Thr” value (“% inhibition … inducer Thr” for short) is 0.9%. In addition, in assay [1], the “antiplatelet aggregation activity (in words)” value is recorded as “no obvious activity”. Also, in assay [2], the “ED50 DLD” value is recorded as “- (“-“: ED50 /c6220 /c109g/mL)”. Moreover, the “ED50 Hepa” value in assay [3] is on record as “- (“-“: ED50 /c6220 /c109g/mL)”.
For `COc1cc2nc3occc3c(OC)c2cc1OC` [Kokusaginine, kokusaginine], the IC50 in assay [4] (Homo sapiens, A549, 48 h, 48 h, value in brackets, read-out: IC50 in μg/ml (μM) (A549) 48 h (converted)) was 338 µM; in assay [4] (Homo sapiens, A549, 48 h, 48 h, read-out: IC50 in μg/ml (μM) (A549) 48 h (converted)), 87.4 ± 7.08 µg/mL; in assay [4] (Homo sapiens, A549, 72 h, 72 h, value in brackets, read-out: IC50 in μg/ml (μM) (A549) 72 h (converted)), > 386 µM; in assay [4] (Homo sapiens, A549, 72 h, 72 h, read-out: IC50 in μg/ml (μM) (A549) 72 h (converted)), > 100 µg/mL; in assay [5] (setting [7]), 289 µM; in assay [5] (Homo sapiens, MRC5), 74.8 ± 0.82 µg/mL.
On to `Cn1c(-c2ccc3c(c2)OCO3)cc(=O)c2ccccc21` [Graveoline, graveoline], for which the IC50 in assay [4] (setting [8]) is 274 µM; in assay [4] (setting [9]) it was 76.3 ± 2.08 µg/mL; in assay [4] (setting [10]) it was 160 µM; in assay [4] (setting [11]), 44.6 ± 0.47 µg/mL; in assay [5] (setting [7]), 250 µM; in assay [5] (Homo sapiens, MRC5), 69.7 ± 2.5 µg/mL.
1-hydroxy-N-methylacridone [Compound 1]: in assay [1] (Conc. 20 /c109g/mL), the “% inhibition … inducer AA” value is given as 17.8%; the “% inhibition … inducer PAF” value is on record as 3.4%; the “% inhibition … inducer Col” value was 3.7%; the “% inhibition … inducer Thr” value is recorded as 4.3%. Further, in assay [1] (Conc. 50 /c109g/mL, inducer column cannot be told), the “effect on platelet aggregation (class symbol)” value is recorded as “A”. Moreover, the “antiplatelet aggregation activity (in words)” value in assay [1] is “no obvious activity”. For the same molecule, the “ED50 Hepa” value in assay [3] is “- (“-“: ED50 /c6220 /c109g/mL)”.
For the molecule skimmianine [Compound 7], the “% inhibition … inducer AA” value in assay [1] (Conc. 20 /c109g/mL) is reported as 5.4%; in assay [1] (Conc. 50 /c109g/mL) it was 13.1%; in assay [1] (Conc. 100 /c109g/mL) it was 81.5%. Besides, the “% inhibition … inducer Col” value in assay [1] (Conc. 20 /c109g/mL) was 2.5%; in assay [1] (Conc. 50 /c109g/mL), 7.8%; in assay [1] (Conc. 100 /c109g/mL), 45.9%. Also, in assay [6], the “ED50 Hela” value was “- (“-“: ED50 /c6220 /c109g/mL)”. Moreover, the “ED50 DLD” value in assay [2] is recorded as “- (“-“: ED50 /c6220 /c109g/mL)”. Moreover, in assay [3], the “ED50 Hepa” value is given as “- (“-“: ED50 /c6220 /c109g/mL)”.
In the case of `Cn1c(-c2ccc3c(c2)OCO3)cc(=O)c2ccccc21` [Compound 17, graveoline], in assay [1] (Conc. 50 /c109g/mL), the “% inhibition … inducer AA” value is given as 9.5%; the “% inhibition … inducer PAF” value is 6.2%; the “% inhibition … inducer Col” value was 5.2%; the “% inhibition … inducer Thr” value is recorded as 1.1%. Besides, the “antiplatelet aggregation activity (in words)” value in assay [1] is reported as “no obvious activity”. The “ED50 DLD” value in assay [2] was “- (“-“: ED50 /c6220 /c109g/mL)”. Also, the “ED50 Hepa” value in assay [3] is on record as “- (“-“: ED50 /c6220 /c109g/mL)”.
On to `CC(=O)CCCCCCc1ccc2c(c1)OCO2` [Moskachan D, moskachan D], for which the IC50 in assay [4] (setting [8]) was 312 µM; in assay [4] (setting [9]) it was 77.5 ± 3 µg/mL; in assay [4] (setting [10]), 74.6 µM; in assay [4] (setting [11]) it was 18.5 ± 0.65 µg/mL; in assay [5] (setting [7]) it was 366 µM; in assay [5] (Homo sapiens, MRC5), 90.8 ± 0.8 µg/mL.
`COc1c2ccoc2cc2oc(=O)ccc12` [Bergapten, bergapten]: the IC50 in assay [4] (setting [8]) was > 463 µM; in assay [4] (setting [9]), > 100 µg/mL; in assay [4] (setting [10]), 202 µM; in assay [4] (setting [11]), 43.5 ± 1.81 µg/mL; in assay [5] (setting [7]), > 463 µM; in assay [5] (Homo sapiens, MRC5), > 100 µg/mL.
For the molecule `N.N.[Cl][Pt][Cl]` [Cisplatin, reference compound], the “IC50 in μg/ml (μM) (A549) 72 h” value in assay [4] (72 h) turned out to be 24.5 ± 1.8 µg/mL. Besides, the IC50 was 81.7 µM in assay [4] (72 h, value in brackets, read-out: IC50 in μg/ml (μM) (A549) 72 h (converted)) and > 333 µM in assay [5] (value in brackets). Further, in assay [5], the “IC50 in μg/ml (μM) (MRC5) 72 h” value is > 100 µg/mL.
Take `C=CC(C)(C)c1cc2cc3c(cc2oc1=O)OC(C(C)(C)OC(C)=O)C3` (stereo not shown) [Compound 14, rutamarin]: in assay [1] (Conc. 50 /c109g/mL), the “% inhibition … inducer AA” value was 7.6%; the “% inhibition … inducer PAF” value is recorded as 4.5%; the “% inhibition … inducer Col” value was 10.5%; the “% inhibition … inducer Thr” value is listed as 3.0%. Moreover, in assay [1], the “antiplatelet aggregation activity (in words)” value is recorded as “no obvious activity”. The “ED50 Hepa” value in assay [3] is “- (“-“: ED50 /c6220 /c109g/mL)”.
On to `C=CC(=C)CCCC(C)CCCC(C)CCCC(C)C` (stereo not shown) [Neophytadiene, neophytadiene], for which the IC50 in assay [4] (setting [8]) is 249 µM; in assay [4] (setting [9]), 69.2 ± 1.06 µg/mL; in assay [4] (setting [10]), 245 µM; in assay [4] (setting [11]), 68 ± 2.43 µg/mL; in assay [5] (setting [7]) it was 278 µM; in assay [5] (Homo sapiens, MRC5), 77.4 ± 0.98 µg/mL.
With `CC(=O)CCCCc1ccc2c(c1)OCO2` [Moskachan B, moskachan B], the IC50 was > 454 µM in assay [4] (setting [8]); > 100 µg/mL in assay [4] (setting [9]); > 454 µM in assay [4] (setting [10]); > 100 µg/mL in assay [4] (setting [11]); > 454 µM in assay [5] (setting [7]); > 100 µg/mL in assay [5] (Homo sapiens, MRC5).
In the case of `COc1cc2c(c(O)c1OC)c(=O)c1ccccc1n2C` [Compound 2, arborinine], in assay [1] (Conc. 50 /c109g/mL), the “% inhibition … inducer AA” value was 51.6%; the “% inhibition … inducer PAF” value is reported as 4.8%; the “% inhibition … inducer Col” value was 39.1%; the “% inhibition … inducer Thr” value is given as 1.1%. Also, the “antiplatelet aggregation activity (in words)” value in assay [1] was “no obvious activity”. Besides, the “ED50 DLD” value in assay [2] is given as “- (“-“: ED50 /c6220 /c109g/mL)”. Besides, in assay [3], the “ED50 Hepa” value is recorded as “- (“-“: ED50 /c6220 /c109g/mL)”.
`COc1c2ccoc2c(OC)c2oc(=O)ccc12` [Compound 11, isopimpinellin]: in assay [1] (Conc. 100 /c109g/mL), the “% inhibition … inducer AA” value was 30.4%; the “% inhibition … inducer PAF” value was 4.5%; the “% inhibition … inducer Col” value is listed as 8.0%; the “% inhibition … inducer Thr” value is recorded as 3.9%. Further, in assay [1], the “antiplatelet aggregation activity (in words)” value is reported as “no obvious activity”.
